The values below come from patent US12534452B2, “N-(1H-imidazol-2-yl)benzamide compound and pharmaceutical composition comprising the same as active ingredient” (KAINOS MEDICINE, INC., priority 2019, dated 2026).

SMILES strings stand for the structures.

The test has as its target IRAK4 (Homo sapiens (Human), UniProt Q9NWZ3). The test is described as follows: In vitro IRAK4 phosphorylation activity assay. Format: biochemical. The conditions noted are these: [γ-33P]-ATP, myelin basic protein substrate, 40 minutes at room temperature; categories. In a few lines: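 Radiometric filter-binding assay, no compound–kinase preincubation; 8 mM MOPS pH 7.0, 0.2 mM EDTA, 10 mM Mg acetate, 0.33 mg/mL myelin basic protein substrate, [γ-33P]-ATP. Reaction 40 min at room temperature, stopped with phosphoric acid, scintillation counting; IC50 reported in categories.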

Sequence of IRAK4 (Q9NWZ3 whole entry): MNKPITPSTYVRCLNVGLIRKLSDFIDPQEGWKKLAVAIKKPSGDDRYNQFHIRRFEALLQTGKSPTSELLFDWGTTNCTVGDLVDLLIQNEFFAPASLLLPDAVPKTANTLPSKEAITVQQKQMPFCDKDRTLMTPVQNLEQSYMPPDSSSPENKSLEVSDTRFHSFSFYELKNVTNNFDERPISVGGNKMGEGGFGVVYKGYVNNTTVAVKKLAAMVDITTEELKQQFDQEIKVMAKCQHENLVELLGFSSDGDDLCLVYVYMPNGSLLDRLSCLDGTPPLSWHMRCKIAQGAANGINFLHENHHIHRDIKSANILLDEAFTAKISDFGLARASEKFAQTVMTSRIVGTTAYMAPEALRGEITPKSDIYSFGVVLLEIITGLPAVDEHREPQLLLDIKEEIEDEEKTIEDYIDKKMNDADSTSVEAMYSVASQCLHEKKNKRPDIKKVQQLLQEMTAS

By IC50 is commonly meant the concentration at which inhibition is half-maximal. Read a low IC50 as greater potency. Consider `Cn1cc(-c2cccc(C(=O)Nc3nc(CCCC(=O)NCCN4CCOCC4)cn3-c3ccccc3)c2)cn1` [Example 184, 3-(1-methyl-1H-pyrazol-4-yl)-N-(4-(4-((2-morpholinoethyl)amino)-4-oxobutyl)-1-phenyl-1H-imidazol-2-yl)benzamide], for which the IC50 is greater than 100 nM.

On to `CC1CCCCN1C(=O)CCCc1cn(-c2ccccc2)c(NC(=O)c2cccc(-c3cnn(C)c3)c2)n1` (centres unmarked) [Example 166, 3-(1-methyl-1H-pyrazol-4-yl)-N-(4-(4-(2-methylpiperidin-1-yl)-4-oxobutyl)-1-phenyl-1H-imidazol-2-yl)benzamide], for which the IC50 was less than 50 nM. For `Cn1cc(-c2cccc(C(=O)Nc3nc(CCCC(=O)NC4CCOC4)cn3-c3ccccc3)c2)cn1` (centres unmarked) [Example 179, 3-(1-methyl-1H-pyrazol-4-yl)-N-(4-(4-oxo-4-((tetrahydrofuran-3-yl)amino)butyl)-1-phenyl-1H-imidazol-2-yl)benzamide], the IC50 is less than 50 nM.

The compound `O=C(CCc1cn(CC2CCCCC2)c(NC(=O)c2cccc(-c3cn[nH]c3)c2)n1)Nc1ccccc1` [Example 295, N-(1-(cyclohexylmethyl)-4-(3-oxo-3-(phenylamino)propyl)-1H-imidazol-2-yl)-3-(1H-pyrazol-4-yl)benzamide] came in with a half-inhibitory concentration (IC50) greater than 100 nM. Consider `C[C@@H]1CCCCN1C(=O)CCc1cn(-c2ccccc2)c(NC(=O)c2cccc(-c3cn[nH]c3)c2)n1` [Example 30, (R)—N-(4-(3-(2-methylpiperidin-1-yl)-3-oxopropyl)-1-phenyl-1H-imidazol-2-yl)-3-(1H-pyrazol-4-yl)benzamide], for which the IC50 was less than 50 nM. To `Nc1ccc(-c2cccc(C(=O)Nc3nc(CCCCCC(=O)N4CCCCC4)cn3-c3ccccc3)c2)cn1` [Example 271, 3-(6-aminopyridin-3-yl)-N-(4-(6-oxo-6-(piperidin-1-yl)hexyl)-1-phenyl-1H-imidazol-2-yl)benzamide] belongs less than 50 nM; to `O=C(CCCCc1cn(-c2ccccc2)c(NC(=O)c2cccc(-c3cn[nH]c3)c2)n1)Nc1ccccc1` [Example 76, N-(4-(5-oxo-5-(phenylamino)pentyl)-1-phenyl-1H-imidazol-2-yl)-3-(1H-pyrazol-4-yl)benzamide], less than 50 nM. `Cn1cc(-c2cccc(C(=O)Nc3nc(CCCCC(=O)N4CCC[C@H](C(=O)O)C4)cn3-c3ccccc3)c2)cn1` [Example 208, (S)-1-(5-(2-(3-(1-methyl-1H-pyrazol-4-yl)benzamido)-1-phenyl-1H-imidazol-4-yl)pentanoyl)piperidine-3-carboxylic acid] returned an IC50 of less than 50 nM. Turning to `O=C(Nc1nc(CCCCN2CCCCC2)cn1-c1ccccc1)c1cccc(-c2ccc3[nH]ncc3c2)c1` [Example 256, 3-(1H-indazol-5-yl)-N-(1-phenyl-4-(4-(piperidin-1-yl)butyl)-1H-imidazol-2-yl)benzamide], the IC50 is less than 50 nM. Regarding `Cn1cc(-c2cccc(C(=O)Nc3nc(CCCC(N)=O)cn3-c3ccccc3)c2)cn1` [Example 189, N-(4-(4-amino-4-oxobutyl)-1-phenyl-1H-imidazol-2-yl)-3-(1-methyl-1H-pyrazol-4-yl)benzamide], the IC50 was less than 50 nM.

For `COC1CCC(NC(=O)CCCc2cn(-c3ccccc3)c(NC(=O)c3cccc(-c4cnn(C)c4)c3)n2)CC1` (centres unmarked) [Example 161, N-(4-(4-((4-methoxycyclohexyl)amino)-4-oxobutyl)-1-phenyl-1H-imidazol-2-yl)-3-(1-methyl-1H-pyrazol-4-yl)benzamide], the IC50 was less than 50 nM.

The compound `Nc1ccc(-c2cccc(C(=O)Nc3nc(CCCCCCN4CCCCC4)cn3-c3ccccc3)c2)cn1` [Example 275, 3-(6-aminopyridin-3-yl)-N-(1-phenyl-4-(6-(piperidin-1-yl)hexyl)-1H-imidazol-2-yl)benzamide] yielded an IC50 of less than 50 nM. As to `Cn1cc(-c2cccc(C(=O)Nc3nc(CCCC(=O)Nc4ccc5c(cnn5C)c4)cn3-c3ccccc3)c2)cn1` [Example 191, N-(4-(4-((1-methyl-1H-indazol-5-yl)amino)-4-oxobutyl)-1-phenyl-1H-imidazol-2-yl)-3-(1-methyl-1H-pyrazol-4-yl)benzamide], the IC50 is less than 50 nM. As to `O=C(CCc1cn(-c2ccccc2)c(NC(=O)c2cccc(-c3cn[nH]c3)c2)n1)Nn1cnnc1` [Example 21, N-(4-(3-((4H-1,2,4-triazol-4-yl)amino)-3-oxopropyl)-1-phenyl-1H-imidazol-2-yl)-3-(1H-pyrazol-4-yl)benzamide], the half-maximal inhibitory concentration (IC50) was 50 to 100 nM. For `O=C(CCc1cn(-c2ccccc2)c(NC(=O)c2cccc(-c3c[nH]nc3C(F)(F)F)c2)n1)Nc1ccccc1` [Example 3, N-(4-(3-oxo-3-(phenylamino)propyl)-1-phenyl-1H-imidazol-2-yl)-3-(3-(trifluoromethyl)-1H-pyrazol-4-yl)benzamide], the half-maximal inhibitory concentration (IC50) was greater than 100 nM.

With `O=C(Nc1nc(CCCCNc2ccccc2)cn1-c1ccccc1)c1cccc(-c2cn[nH]c2)c1` [Example 112, N-(1-phenyl-4-(4-(phenylamino)butyl)-1H-imidazol-2-yl)-3-(1H-pyrazol-4-yl)benzamide], the IC50 is greater than 100 nM. On to `CNC(=O)CCCc1cn(-c2ccccc2)c(NC(=O)c2cccc(-c3cnn(C)c3)c2)n1` [Example 139, 3-(1-methyl-1H-pyrazol-4-yl)-N-(4-(4-(methylamino)-4-oxobutyl)-1-phenyl-1H-imidazol-2-yl)benzamide], for which the half-inhibitory concentration (IC50) is less than 50 nM. Compound `COC[C@@H]1CCCN1NC(=O)Cc1cn(-c2ccccc2)c(NC(=O)c2cccc(-c3cn[nH]c3)c2)n1` [Example 44, (S)—N-(4-(2-((2-(methoxymethyl)pyrrolidin-1-yl)amino)-2-oxoethyl)-1-phenyl-1H-imidazol-2-yl)-3-(1H-pyrazol-4-yl)benzamide] yielded an IC50 greater than 100 nM. In turn, `Cn1cc(-c2cccc(C(=O)Nc3nc(CCCC(=O)Nc4cc[nH]n4)cn3-c3ccccc3)c2)cn1` [Example 217, N-(4-(4-((1H-pyrazol-3-yl)amino)-4-oxobutyl)-1-phenyl-1H-imidazol-2-yl)-3-(1-methyl-1H-pyrazol-4-yl)benzamide] returned a 50% inhibitory concentration (IC50) of less than 50 nM. On to `CN(C)C1CCN(C(=O)CCCCCc2cn(-c3ccccc3)c(NC(=O)c3cccc(-c4ccc5scnc5c4)c3)n2)CC1` [Example 291, 3-(benzo[d]thiazol-5-yl)-N-(4-(6-(4-(dimethylamino)piperidin-1-yl)-6-oxohexyl)-1-phenyl-1H-imidazol-2-yl)benzamide], for which the IC50 is greater than 100 nM. Consider `O=C(Nc1nc(CCCNc2ccccc2)cn1-c1ccccc1)c1cccc(-c2cn[nH]c2)c1` [Example 109, N-(1-phenyl-4-(3-(phenylamino)propyl)-1H-imidazol-2-yl)-3-(1H-pyrazol-4-yl)benzamide], for which the IC50 was less than 50 nM. Consider `COC(=O)Cc1cn(-c2ccccc2)c(NC(=O)c2cccc(-c3cn[nH]c3)c2)n1` [Example 42, methyl 2-(2-(3-(1H-pyrazol-4-yl)benzamido)-1-phenyl-1H-imidazol-4-yl)acetate], for which the half-inhibitory concentration (IC50) lay within 50 to 100 nM. On to `CC1(C)CCCN(C(=O)CCc2cn(-c3ccccc3)c(NC(=O)c3cccc(-c4cn[nH]c4)c3)n2)C1` [Example 34, N-(4-(3-(3,3-dimethylpiperidin-1-yl)-3-oxopropyl)-1-phenyl-1H-imidazol-2-yl)-3-(1H-pyrazol-4-yl)benzamide], for which the IC50 is less than 50 nM. Turning to `O=C(Nc1nc(CCCCCN2CCSCC2)cn1-c1ccccc1)c1cccc(-c2cn[nH]c2)c1` [Example 120, N-(1-phenyl-4-(5-thiomorpholinopentyl)-1H-imidazol-2-yl)-3-(1H-pyrazol-4-yl)benzamide], the IC50 is less than 50 nM. Compound `O=C(Nc1nc(CCCCCCN2CCOCC2)cn1-c1ccccc1)c1cccc(-c2cn[nH]c2)c1` [Example 123, N-(4-(6-morpholinohexyl)-1-phenyl-1H-imidazol-2-yl)-3-(1H-pyrazol-4-yl)benzamide] came in with a half-inhibitory concentration (IC50) of less than 50 nM.

`Cn1cc(-c2cccc(C(=O)Nc3nc(CCCC(=O)NC4CC4)cn3-c3ccc(F)cc3)c2)cn1` [Example 300, N-(4-(4-(cyclopropylamino)-4-oxobutyl)-1-(4-fluorophenyl)-1H-imidazol-2-yl)-3-(1-methyl-1H-pyrazol-4-yl)benzamide] had an IC50 of less than 50 nM. In the case of `Cn1cc(-c2cccc(C(=O)Nc3nc(CCCC(=O)NC4CCOCC4)cn3-c3ccccc3)c2)cn1` [Example 157, 3-(1-methyl-1H-pyrazol-4-yl)-N-(4-(4-oxo-4-((tetrahydro-2H-pyran-4-yl)amino)butyl)-1-phenyl-1H-imidazol-2-yl)benzamide] it was less than 50 nM; in that of `O=C(CCc1cn(-c2ccccc2)c(NC(=O)c2cccc(-c3c[nH]nc3[N+](=O)[O-])c2)n1)Nc1ccccc1` [Example 1, 3-(3-nitro-1H-pyrazol-4-yl)-N-(4-(3-oxo-3-(phenylamino)propyl)-1-phenyl-1H-imidazol-2-yl)benzamide], greater than 100 nM; in that of `O=C(Nc1nc(CCCCCCN2CCCCC2)cn1-c1ccc(F)cc1)c1cccc(-c2cn[nH]c2)c1` [Example 301, N-(1-(4-fluorophenyl)-4-(6-(piperidin-1-yl)hexyl)-1H-imidazol-2-yl)-3-(1H-pyrazol-4-yl)benzamide], less than 50 nM.

Consider `Cn1cc(-c2cccc(C(=O)Nc3nc(CCCC(=O)NCCCN4CCCCC4)cn3-c3ccccc3)c2)cn1` [Example 158, 3-(1-methyl-1H-pyrazol-4-yl)-N-(4-(4-oxo-4-((3-(piperidin-1-yl)propyl)amino)butyl)-1-phenyl-1H-imidazol-2-yl)benzamide], for which the IC50 was less than 50 nM. In turn, `Cn1cc(-c2cccc(C(=O)Nc3nc(CCCCC(=O)N4CCNCC4)cn3-c3ccccc3)c2)cn1` [Example 204, 3-(1-methyl-1H-pyrazol-4-yl)-N-(4-(5-oxo-5-(piperazin-1-yl)pentyl)-1-phenyl-1H-imidazol-2-yl)benzamide] had a 50% inhibitory concentration (IC50) of less than 50 nM. To `O=C(CCc1cn(-c2ccccc2)c(NC(=O)c2cccc(-c3cn[nH]c3)c2)n1)Nc1ccc(F)cc1` [Example 10, N-(4-(3-((4-fluorophenyl)amino)-3-oxopropyl)-1-phenyl-1H-imidazol-2-yl)-3-(1H-pyrazol-4-yl)benzamide] belongs 50 to 100 nM.
